Assay results from patent US9232789B2, “Biostatic neutralizing composition for aqueous fluids” (ARKEMA FRANCE, priority 2010, dated 2016).

What was measured:
[1] = system: Pseudomonas aeruginosa and Staphylococcus aureus; test: Test of bacterial proliferation, bactericidal and/or bacteriostatic activity according to standard NF EN 1040; assay type: cell-based; design: key: +: low degree of reduction; ++++: high degree of reduction; conditions: surviving bacteria counted after 5 minutes contact at 20° C.
Experimental: A test is carried out in order to evaluate the bactericidal and/or bacteriostatic activity of a sample of the composition of the invention, according to the standard NF EN 1040 (April 2006). A sample of a composition as it is (maximum concentration of the test: 80%) and/or diluted with water is added to a test suspension of bacteria (Pseudomonas aeruginosa and Staphylococcus aureus). The mixture is maintained at 20° C. for 5 minutes. An aliquote portion is removed at the end of this contact time; the bactericidal and/or bacteriostatic activity in this withdrawal is immediately neutralized or suppressed according to a validated method. The method used preferably is the dilution-neutralization method. Filtration over a membrane is used when it is not possible to find a suitable neutralizer. The surviving bacteria in each sample are counted, which makes it possible to calculate the degree of reduction, denoted by “+” (low degree of reduction) to “++++” (high degree of reduction) in table 2 below: […]

[2] = assay type: physicochemical
Description: In this example, the following two amines are considered: • Amine (1) alone: methyldiethanolamine (MDEoA); • Amine (2) alone: n-heptyldiethanolamine (C7DEoA).
The appended FIG. 1 represents a ternary phase diagram between these 2 amines and water. The percentages are expressed by weight. The miscible mixtures are denoted by points (●), the immiscible mixtures are denoted by crosses (X).
The C7DEoA/water binary mixture is not miscible in all proportions. There is immiscibility when the C7DEoA is found in an amount of greater than 50%. In the area of immiscibility (amount of C7DEoA greater than 50%), the MDEoA acts as a coupling agent (co-solvent) when it is present in a content of greater than 15%.

[3] = Test of neutralization (weight of amine necessary for neutralizing 100 g of oleic acid); assay type: physicochemical; conditions: for Amount necessary for neutralizing 100 g of oleic acid: weight of amine per 100 g of oleic acid
Experimental: The neutralizing capacity is evaluated by determining the weight of amine (in grams) necessary for neutralizing 100 g of oleic acid. In this example, the neutralizing capacities of the following products are compared: • Amine (1) alone: monoethanolamine (MEoA); • Amine (2) alone: n-heptyldiethanolamine ([…]); • Mixture of amine (1)+amine (2): 70% by weight of MEoA+30% by weight of […].

Row | Compound | Degree of reduction [1] | amount of C7DEoA in C7DEoA/water binary mixture at which there is immiscibility [2] | neutralizing capacity (in words) ([3]; oleic acid neutralization) | Amount necessary for neutralizing 100 g of oleic acid [3]
1 | n-heptyldiethanolamine [Composition C7DEoA] | ++++ | greater than 50% | much lower | 36 g
2 | NCCO [MEoA, monoethanolamine, reference compound] | + | – | – | 6.8 g
